# Results taken from publication PMC9186373, “Design, synthesis, and biological evaluation of novel carbazole derivatives as potent DNMT1 inhibitors with reasonable PK properties” (Journal of Enzyme Inhibition and Medicinal Chemistry, 2022).
# Read-outs that look alike come from different tables or passages of the source.
# How the values were obtained:
# human DNMT1 = experiment: ELISA EpiQuik DNA methyltransferase (DNMT) activity/inhibitor assay; format: biochemical; details: 200 nM purified DNMT1, EpiQuik kit; for Inh% at 50 μM: 50 μM compound; for Inh% at 100 μM: 100 μM compound
# Protocol: (§1) All the compounds were first screened using an ELISA EpiQuik DNA methyltransferase (DNMT) activity/inhibitor assay kit (Epigentek). To measure the effects of the compounds on human DNMT1 activity, 200 nM purified DNMT1 was incubated with 50 µM and 100 µM of the different compounds and S-adenosylmethionine in the DNMT assay buffer in the assay plate at 37 °C for 2 h[36]. Next, every sample was incubated with the capture and detection antibody, followed by incubation with developer solution for 10 min at room temperature. The absorbance was measured at 450 nm using a POLARstar Omega microplate reader (BMG). S-Adenosylhomocysteine (AdoHcy) was used as a positive control. Methylation inhibition assays for EZH2, LSD, and G9a were performed in modified Tris, pH 9.0, buffer using AlphaLisa technology. An amount of 10 µL of the reaction system contained a corresponding concentration of SAM (Sigma) (EZH2 50 µM, LSD 50 µM, and G9a 50 µM), which was the Km value in each enzymatic reaction, plus 100 nM biotinylated peptide H3 (1–21) (synthesis by GLChina) and the relevant enzyme concentration (0.03 nM EZH2, 0.03 nM LSD, and 0.03 nM G9a). The proteins were preincubated with various compound concentrations for 15 min at room temperature before the substrate and SAM were added. After 60 min of incubation at room temperature, acceptor and donor AlphaLisa beads were added according to the manufacturer’s recommendations. The signals were read in Alpha mode with an EnSpire multimode plate reader (PerkinElmer). IC50 values were derived by fitting the data for the inhibition percentage to a dose-response curve by non-linear regression in GraphPad Prism 5.0[20].
# DNMT1 inhibition test was performed on 30 candidates to verify their biochemical activities. The EpiQuik DNA methyl-transferase (DNMT) activity/inhibitor assay kit (Epigentek) was used to identify the activity of synthetic compounds.
# DNMT1 = DNMT1 (Homo sapiens, UniProt P26358); experiment: H3-labelled radioactive methylation assay; format: biochemical; details: H3-labeled radioactive methylation assay; 40 nM DNMT1
# Protocol: The DNMT1 radioactive methylation inhibition assays were performed in 30 µL reactions containing 0.1 µM adenosyl-L-methionine S-[methyl-^3H] (^3H-SAM, ^15 Ci/mmol, PerkinElmer), 0.25 µg/mL poly (dI-dC)·poly (dI-dC) (Sigma), 40 nM DNMT1 in 50 mM Tris-HCl, pH 8.0, 1 mM DTT, 5% glycerol, and 100 µg/mL BSA. The proteins were preincubated with a range of compound concentrations for 15 min at room temperature before adding the substrate and [^3H] SAM. After 60 min of incubation at 37 °C, the reaction systems were transferred to a MultiScreen HTS filter plate (Millipore), and the plate was washed 3 times with doubly distilled H2O via a vacuum. The radioactivity was determined by liquid scintillation counting (MicroBeta, PerkinElmer). IC50 values were derived by fitting the data for the inhibition percentage to a dose-response curve by non-linear regression in GraphPad Prism 5.0.
# To quantitatively analyse DNMT1 inhibitory effect, the H^3-labelled radioactive methylation assay was conducted to measure the methyltransferase activity of DNMT1 at a range of concentrations for these compounds.
# DNMT3A/3L = experiment: Methyltransferase enzymatic selectivity profiling, DNMT3A/3L; format: biochemical; details: 1 - selected enzyme inhibition/DNMT1 inhibition; 50 µM
# Protocol: (§2) In addition to DNMT1, there are many other methyltransferases that can bind with S-adenosyl-L-methionine (SAM) to facilitate transmethylation reactions[24]^,[25]. To investigate the selectivity of these potent compounds for DNMT1, we then evaluated the inhibitory activities against DNMT1 and other important methyltransferases at the concentration of 50 µM, including DNMT3A/3L, DNMT3B/3L, and other SAM-dependent enzymes[1]^,[2]^,[26], such as EZH2[27], LSD1[28], G9a (histone H3 lysine 9 methyltransferase)[29].
# (§3) Here, the selectivity of non-nucleoside DNMT1 inhibitors is somewhat predictable because other methyltransferases mentioned above catalyse different substrates and share very low homology with DNMT1, even in their catalytic domain[30–32]. Subsequently, the screened compounds were evaluated in a dose-dependent assay against HCT116 (human colon cancer cell line) and A549 (human lung carcinoma cell line).
# (§4) 493 Relative selectivity index
# (§5) 494 Relative selectivity index of DNMT1 is calculated by formula: DNMT1-selectivity
# (§6) 495 index =1 - selected enzyme inhibition/DNMT1 inhibition. The closer
# (§7) 496 that this value is to 1 or even more than 1, the better DNMT1-selectivity the of the
# (§8) 498 Table S1. Relative selectivity index of DNMT1
# Cpd. […]
# DNMT3B/3L = experiment: Methyltransferase enzymatic selectivity profiling, DNMT3B/3L; format: biochemical; details: 50 µM; for Relative selectivity index of DNMT1 vs DNMT 3B/3L: 1 - selected enzyme inhibition/DNMT1 inhibition
# Protocol: as §2, §3, §4, §5, §6, §7, §8
# Cpd. […]
# EZH2 = experiment: Methylation inhibition assay (AlphaLisa), EZH2; format: biochemical; details: 50 µM; for inhibitory activity against EZH2: Figure 3; for Relative selectivity index of DNMT1 vs EZH2: 1 - selected enzyme inhibition/DNMT1 inhibition
# Protocol: as §1, §2, §4, §5, §6, §7, §8
# Cpd. […]
# LSD1 = experiment: Methylation inhibition assay (AlphaLisa), LSD1; format: biochemical; details: 1 - selected enzyme inhibition/DNMT1 inhibition; 50 µM
# Protocol: as §1, §2, §4, §5, §6, §7, §8
# Cpd. […]
# [1] = test system: G9a (histone H3 lysine 9 methyltransferase); experiment: Methylation inhibition assay (AlphaLisa), G9a; format: biochemical; details: 50 µM; for inhibitory activity against G9a: Figure 3; for Relative selectivity index of DNMT1 vs G9a: 1 - selected enzyme inhibition/DNMT1 inhibition
# Protocol: as §1, §2, §4, §5, §6, §7, §8
# Cpd. […]
# [2] = test system: HCT116 (human colon cancer cells); experiment: MTT assay, HCT116; format: cell-based
# Protocol: (§9) The human lung cancer cells (A549) and human colon cancer cells (HCT116) were cultured in an RPMI-1640 medium containing 10% FBS, 100 U/mL streptomycin, and 100 U/mL penicillin at 37 °C in a humidified atmosphere with 5% CO2. All compounds were dissolved in DMSO and stock solutions were stored at −20 °C. Reagents were freshly diluted to the marked concentrations with a culture medium before use. DMSO concentration in experimental conditions never exceeded 0.1% (v/v). All cell lines were provided by the cell laboratory, School of pharmaceutical sciences, Guangzhou Medical University.
# (§10) Cell viability was detected using an MTT assay kit. Cells were seeded into 96-well plates at a density of ∼1.0 × 10^4/well. 24 h later, sextuplicate wells were treated with media and new compounds at a fixed concentration (50 µM). After 24, 48, and 72 h, the drug-containing medium was replaced by a 100 µL fresh medium with 5 mg/mL MTT solution. After 4 h of incubation, the medium with MTT was removed, and 100 µL of DMSO was added to each well. The plates were gently agitated until the purple formazan crystals were dissolved, and the OD490 was determined using a […] (Olympus BX53, Japan). The data were calculated and plotted as the percent viability compared to the control.
# [3] = test system: A549 (human lung cancer cells); experiment: MTT assay, A549; format: cell-based
# Protocol: as §9, §10
# PK study in SD rats = format: in vivo; details: rat, plasma, SD male rats; for AUC(0-t) / Tmax / half-life: mean ± SD (n = 3); for bioavailability: p.o. 10 mg/kg vs i.v. 2 mg/kg, F = (AUC p.o. × Dose i.v.)/(AUC i.v. × Dose p.o.) × 100%
# Protocol: In vivo pharmacokinetic properties of WK-22, WK-23, WK-27, and DC_517 were performed by Medicilon Company, Shanghai, China. SPF-grade SD male rats (8 groups, n = 3 rats per group) with a body weight of 230–260 g were purchased from Shanghai SIPPR-BK LAB Animal Ltd., Shanghai, China, and used for the pharmacokinetic analysis of the tested compounds. All animals were deprived of food overnight after the cannulation surgery. Subsequently, the tested compounds WK-23 and DC_517 were dissolved/suspended in 5% DMSO, 10% Solutol, and 85% water, and the tested compounds WK-22 and WK-27 were dissolved/suspended in 5% DMSO, 40% PEG400, and 55% saline for intravenous administration (i.v.) and oral administration (p.o.), respectively. A final dosage of 2.0 and 10.0 mg/kg rat of the formulated compounds was administered for i.v. and p.o. purposes, respectively, and the blood samples were taken at various time points during a 24 h period. At different time points, blood samples were collected from the femoral vein. The plasma samples were obtained after centrifugation (6800 g, 6 min, 2–8 °C) and stored at −80 °C until the assay. The AUC (area under concentration-time curve) was calculated through the trapezoidal rule with extrapolation to time infinity. The concentration of the compounds in the blood was analysed by LC-MS/MS (Shimadzu liquid chromatographic system and SCIEX Triple Quad 5500+ mass spectrometer, Applied Biosystems, Ontario, Canada). The Tmax, T1/2, and Cmax value was obtained through visual inspection of the plasma concentration-time curve. The Vss value was generated from DAS 3.2.8 software. The F value of WK-23 was calculated with the formula: F = (AUC p.o. × Dose i.v.)/(AUC i.v. × Dose p.o.) × 100%.
# Sequence of DNMT1 (P26358 whole entry): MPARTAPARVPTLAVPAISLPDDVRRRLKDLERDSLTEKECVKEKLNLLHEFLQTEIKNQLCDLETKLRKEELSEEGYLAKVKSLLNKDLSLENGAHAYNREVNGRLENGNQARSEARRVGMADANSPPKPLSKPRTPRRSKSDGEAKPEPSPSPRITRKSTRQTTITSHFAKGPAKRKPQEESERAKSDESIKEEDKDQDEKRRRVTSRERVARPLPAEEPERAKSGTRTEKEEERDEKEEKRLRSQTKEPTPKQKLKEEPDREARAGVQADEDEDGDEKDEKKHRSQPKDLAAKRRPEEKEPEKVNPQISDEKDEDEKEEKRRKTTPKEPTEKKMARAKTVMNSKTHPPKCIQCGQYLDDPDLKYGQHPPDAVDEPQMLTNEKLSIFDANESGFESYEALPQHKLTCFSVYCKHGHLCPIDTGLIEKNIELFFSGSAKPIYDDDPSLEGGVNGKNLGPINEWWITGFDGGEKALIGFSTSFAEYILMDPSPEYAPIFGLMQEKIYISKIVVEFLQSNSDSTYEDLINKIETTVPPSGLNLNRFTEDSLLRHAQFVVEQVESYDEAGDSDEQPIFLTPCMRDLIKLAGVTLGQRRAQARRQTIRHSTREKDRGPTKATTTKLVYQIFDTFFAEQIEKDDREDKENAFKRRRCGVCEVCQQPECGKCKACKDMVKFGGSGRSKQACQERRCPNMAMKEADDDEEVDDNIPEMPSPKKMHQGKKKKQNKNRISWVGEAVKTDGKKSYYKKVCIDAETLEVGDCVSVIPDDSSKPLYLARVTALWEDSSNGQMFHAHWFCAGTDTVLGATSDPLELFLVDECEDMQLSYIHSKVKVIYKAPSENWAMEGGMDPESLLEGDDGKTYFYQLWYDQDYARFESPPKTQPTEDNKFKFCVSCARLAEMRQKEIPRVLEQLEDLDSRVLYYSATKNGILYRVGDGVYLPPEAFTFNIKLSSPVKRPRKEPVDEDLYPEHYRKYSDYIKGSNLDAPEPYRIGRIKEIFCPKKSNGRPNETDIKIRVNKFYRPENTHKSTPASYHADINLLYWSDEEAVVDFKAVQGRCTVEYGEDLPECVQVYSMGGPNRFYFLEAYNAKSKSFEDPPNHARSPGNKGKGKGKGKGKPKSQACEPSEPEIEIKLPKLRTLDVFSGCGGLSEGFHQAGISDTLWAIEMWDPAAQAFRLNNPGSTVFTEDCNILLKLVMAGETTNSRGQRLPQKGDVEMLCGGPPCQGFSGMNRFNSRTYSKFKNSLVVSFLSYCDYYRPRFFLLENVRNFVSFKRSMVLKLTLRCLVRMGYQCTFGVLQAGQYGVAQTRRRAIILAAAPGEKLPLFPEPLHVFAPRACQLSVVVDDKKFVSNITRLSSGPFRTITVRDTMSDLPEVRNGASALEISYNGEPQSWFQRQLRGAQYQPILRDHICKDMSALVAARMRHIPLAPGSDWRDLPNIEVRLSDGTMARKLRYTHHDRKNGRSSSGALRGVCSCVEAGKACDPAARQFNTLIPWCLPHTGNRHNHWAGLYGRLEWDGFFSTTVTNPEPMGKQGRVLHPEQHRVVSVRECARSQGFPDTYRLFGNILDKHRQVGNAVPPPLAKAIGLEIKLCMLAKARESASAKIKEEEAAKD
Compound,Inh% at 50 μM (human DNMT1) [%],Inh% at 100 μM (human DNMT1) [%],IC50 (DNMT1) [µM],Relative selectivity index of DNMT1 vs DNMT 3A/3L (DNMT3A/3L),Relative selectivity index of DNMT1 vs DNMT 3B/3L (DNMT3B/3L),inhibitory activity against G9a [1],Relative selectivity index of DNMT1 vs G9a [1],melting point [°C],inhibitory activity against EZH2 (EZH2),Relative selectivity index of DNMT1 vs EZH2 (EZH2),Relative selectivity index of DNMT1 vs LSD1 (LSD1),further results
"OC(CNCCc1c[nH]c2ccccc12)Cn1c2ccc(F)cc2c2cc(F)ccc21 (centres unmarked) [WK-12, 1-((2-(1H-indol-3-yl)ethyl)amino)-3-(3,6-difluoro-9H-carbazol-9-yl)propan-2-ol]",99,94,17,0.67,1.09,hardly any inhibitory activities,0.93,130 to 132,hardly any inhibitory activities,0.91,0.23,"inhibitory activity against DNMT3B/3L (DNMT3B/3L; Figure 3): hardly any inhibitory activities; inhibition at 50 µM ([2]; HCT-116, 24 h, read-out: Inh % at 50 μM, HCT116, 24 h): 77.7%; inhibition at 50 µM ([2]; HCT-116, 48 h, read-out: Inh % at 50 μM, HCT116, 48 h): 88.8%; inhibition at 50 µM ([2]; HCT-116, 72 h, read-out: Inh % at 50 μM, HCT116, 72 h): 96.7%; inhibition at 50 µM ([3]; 24 h, read-out: Inh % at 50 μM, A549, 24 h): 59.9%; inhibition at 50 µM ([3]; 48 h, read-out: Inh % at 50 μM, A549, 48 h): 80.1%; inhibition at 50 µM ([3]; 72 h, read-out: Inh % at 50 μM, A549, 72 h): 84.7%"
"CC(O)CNCC(O)Cn1c2ccc(F)cc2c2cc(F)ccc21 (centres unmarked) [WK-18, 1-(3,6-Difluoro-9H-carbazol-9-yl)-3-((2-hydroxypropyl)amino)propan-2-ol]",70,87,10,,,,,130 to 132,,,,
"OC(CNCCc1ccccc1)Cn1c2ccc(F)cc2c2cc(F)ccc21 (centres unmarked) [WK-15, 1-(3,6-Difluoro-9H-carbazol-9-yl)-3-(phenethylamino)propan-2-ol]",75,82,7.7,,,,,91 to 93,,,,
"OC(CNCCc1ccc(F)cc1)Cn1c2ccc(F)cc2c2cc(F)ccc21 (centres unmarked) [WK-14, 1-(3,6-Difluoro-9H-carbazol-9-yl)-3-((4-fluorophenethyl)amino)propan-2-ol]",79,84,6,,,,,114 to 116,,,,

# Second part, led by results:
Inh% at 50 μM (human DNMT1) [%],Inh% at 100 μM (human DNMT1) [%],IC50 (DNMT1) [µM],Relative selectivity index of DNMT1 vs DNMT 3A/3L (DNMT3A/3L),Relative selectivity index of DNMT1 vs DNMT 3B/3L (DNMT3B/3L),inhibitory activity against G9a [1],Relative selectivity index of DNMT1 vs G9a [1],melting point [°C],Compound,inhibitory activity against EZH2 (EZH2),Relative selectivity index of DNMT1 vs EZH2 (EZH2),Relative selectivity index of DNMT1 vs LSD1 (LSD1),further results
100,100,,0.94,1.44,,0.99,183 to 185,"CC(C)(C)NCC(O)COC(Cn1c2ccccc2c2cc(F)ccc21)Cn1c2ccccc2c2cc(F)ccc21 (centres unmarked) [WK-25, 1-((1,3-Bis(3-fluoro-9H-carbazol-9-yl)propan-2-yl)oxy)-3-(tert-butylamino)propan-2-ol]",,0.89,0.02,
100,100,,0.03,0.03,nearly no inhibitory activities,0.97,150 to 152,"OC[C@H]1CN(CC(O)COC(Cn2c3ccccc3c3cc(F)ccc32)Cn2c3ccc(F)cc3c3cc(F)ccc32)CCN1 (stereo partly drawn) [WK-27, 1-((1-(3,6-Difluoro-9H-carbazol-9-yl)-3-(3-fluoro-9H-carbazol-9-yl)propan-2-yl)oxy)-3-((R)-3-(hydroxymethyl)piperazin-1-yl)propan-2-ol]",nearly no inhibitory activities,0.9,0.05,"AUC(0-t) (PK study in SD rats; iv, i.v. (2 mg/kg)): 427 ± 60 ng·h/mL; Tmax (PK study in SD rats; iv, i.v. (2 mg/kg)): 0.1 h; half-life (PK study in SD rats; iv, i.v. (2 mg/kg)): 11.5 ± 1.2 h; bioavailability (PK study in SD rats; oral): 1.8%; bioavailability (PK study in SD rats; po): 1.8 ± 1.9%; AUC(0-t) (PK study in SD rats; po, p.o. (10 mg/kg)): 28.5 ± 40 ng·h/mL; Tmax (PK study in SD rats; po, p.o. (10 mg/kg)): 2.7 ± 1.2 h; half-life (PK study in SD rats; po, p.o. (10 mg/kg)): 3.9 ± 2.5 h"
